From DBAASP
Values after ≈ are worked out from the molar mass of the structure shown.

How the values were obtained:
Test in all cases: ≥ marks a high value that may be exact or a test limit, other limits are often not marked, values filed in µg/mL are converted to µM
[1] = system: Klebsiella pneumoniae CGMCC 1.1736
[2] = system: Staphylococcus epidermidis CGMCC 1.4260
[3] = system: Escherichia coli CGMCC 1.8732
[4] = system: Bacillus subtilis CGMCC 1.3376
[5] = system: Staphylococcus aureus CGMCC 1.8721
[6] = system: Pseudomonas aeruginosa CGMCC 1.2421
Escherichia coli = system: Escherichia coli
[7] = system: Staphylococcus aureus NCTC 12493
[8] = system: Enterococcus faecalis JH-2-2
[9] = system: Acinetobacter baumannii Q12-0809
[10] = system: Pseudomonas aeruginosa Q12-0581
[11] = system: Acinetobacter baumannii Q13-0717
[12] = system: Pseudomonas aeruginosa Q14-0890
[13] = system: Staphylococcus aureus Q14-0320
Campylobacter jejuni = system: Campylobacter jejuni
[14] = system: Salmonella typhimurium SL1344
[15] = system: Pseudomonas aeruginosa PAO1
[16] = system: Klebsiella pneumoniae NCTC 13442
Escherichia coli K-12 = system: Escherichia coli K-12
[17] = system: Klebsiella pneumoniae Q14-0095
[18] = system: Acinetobacter baumannii Q12-0867
[19] = system: Campylobacter jejuni NCTC 11351
[20] = system: Staphylococcus aureus RN4220
[21] = system: Staphylococcus aureus ATCC 29213
[22] = system: Pseudomonas aeruginosa Q14-0208
[23] = system: Pseudomonas aeruginosa ATCC 27853
[24] = system: Staphylococcus aureus MRSA-15
[25] = system: Klebsiella pneumoniae ATCC 700603
[26] = system: Listeria monocytogenes NCTC 11994
[27] = system: Staphylococcus aureus ATCC 33591
Pseudomonas aeruginosa = system: Pseudomonas aeruginosa
[28] = system: Staphylococcus aureus USA 300
[29] = system: Campylobacter jejuni ATCC 33292
Acinetobacter baumannii = system: Acinetobacter baumannii
[30] = system: Campylobacter jejuni NCTC 11161
[31] = system: Klebsiella pneumoniae Q14-0285
[32] = system: Escherichia coli ATCC 25922(GenR)
[33] = system: Enterococcus faecalis NCTC 12697
[34] = system: Escherichia coli NCTC 10418
[35] = system: Staphylococcus aureus ATCC 25923(GenR)
[36] = system: Staphylococcus aureus ATCC 25923(RifR)
[37] = system: Bacillus subtilis ATCC 23857
[38] = system: Escherichia coli ATCC 25922(RifR)
[39] = system: Staphylococcus aureus NCTC 10788
[40] = system: Candida albicans NCPF 1467

CC[C@H](C)[C@H](NC(=O)[C@H](C)N)C(=O)NCC(=O)N[C@@H](CO)C(=O)N[C@H](C(=O)N[C@@H](CC(C)C)C(=O)NCC(=O)N[C@@H](C)C(=O)N[C@@H](CC(C)C)C(=O)N[C@@H](C)C(=O)N[C@@H](CCCCN)C(=O)NCC(=O)N[C@@H](CC(C)C)C(=O)N1CCC[C@H]1C(=O)N[C@H](C(=O)N[C@@H](CC(C)C)C(=O)N[C@@H](CCCN=C(N)N)C(=O)N[C@@H](CO)C(=O)N[C@@H](Cc1c[nH]c2ccccc12)C(=O)N[C@H](C(=O)N[C@@H](CCCCN)C(=O)N[C@@H](CC(N)=O)C(=O)N[C@@H](CCCN=C(N)N)C(N)=O)[C@@H](C)CC)[C@@H](C)O)[C@@H](C)CC [AIGSILGALAKGLPTLRSWIKNR]
MIC [1]: 25 µM (≈ 60.9 µg/mL) | MIC [2]: 6.25 µM (≈ 15.2 µg/mL) | MIC [3]: 12.5 µM (≈ 30.4 µg/mL) | MIC [4]: 3.13 µM (≈ 7.62 µg/mL) | MIC [5]: 25 µM (≈ 60.9 µg/mL) | MIC [6]: 12.5 µM (≈ 30.4 µg/mL)

CC(C)[C@H](NC(=O)[C@@H](N)CCC(N)=O)C(=O)N[C@@H](CCCN=C(N)N)C(=O)N[C@@H](Cc1c[nH]c2ccccc12)C(=O)N[C@@H](Cc1c[nH]c2ccccc12)C(=O)NCC(=O)N[C@@H](CCCN=C(N)N)C(=O)N[C@@H](Cc1ccc(O)cc1)C(=O)N[C@@H](Cc1c[nH]c2ccccc12)C(=O)N[C@@H](CCCN=C(N)N)C(=O)N[C@@H](CCCN=C(N)N)C(=O)N[C@@H](CCCCN)C(=O)N[C@@H](Cc1c[nH]c2ccccc12)C(=O)N[C@@H](C)C(=O)N[C@H](C(=O)N[C@@H](CS)C(=O)N[C@@H](CCCN=C(N)N)C(=O)O)[C@@H](C)O [QVRWWGRYWRRKWATCR]
MIC (Escherichia coli): > 53.4 µM | MIC [7]: 6.68 µM (≈ 16 µg/mL) | MIC [8]: ≥ 107 µM | MIC [9]: 13.4 µM (≈ 32 µg/mL) | MIC [10]: ≥ 53.4 µM | MIC [11]: 26.7 µM (≈ 64 µg/mL) | MIC [12]: 13.4 µM (≈ 32 µg/mL) | MIC [13]: 26.7 µM (≈ 64 µg/mL) | MIC (Campylobacter jejuni): ≥ 53.4 µM | MIC [14]: ≥ 107 µM | MIC [15]: 214 µM (≈ 512 µg/mL) | MIC [16]: ≥ 53.4 µM | MIC (Escherichia coli K-12): ≥ 107 µM | MIC [17]: ≥ 53.4 µM | MIC [18]: 6.68 µM (≈ 16 µg/mL) | MIC [19]: ≥ 53.4 µM | MIC [20]: ≥ 107 µM | MIC [21]: 26.7 µM (≈ 64 µg/mL) | MIC [22]: 26.7 µM (≈ 64 µg/mL) | MIC [23]: 53.4 µM (≈ 128 µg/mL) | MIC [24]: ≥ 104 µM | MIC [25]: 26.7 µM (≈ 64 µg/mL) | MIC [26]: ≥ 53.4 µM

CC[C@H](C)[C@H](NC(=O)[C@H](CCCN=C(N)N)NC(=O)[C@@H](NC(=O)[C@H](CC(C)C)NC(=O)[C@H](CC(C)C)NC(=O)[C@H](CCCCN)NC(=O)[C@H](CC(N)=O)NC(=O)[C@@H](NC(=O)[C@H](CCCN=C(N)N)NC(=O)[C@H](CCCN=C(N)N)NC(=O)[C@H](CC(C)C)NC(=O)[C@@H](N)Cc1cnc[nH]1)[C@@H](C)CC)[C@@H](C)O)C(=O)NCC(=O)N[C@@H](CC(C)C)C(=O)N[C@@H](Cc1ccc(O)cc1)C(=O)N[C@@H](CCCN=C(N)N)C(=O)N[C@@H](Cc1cnc[nH]1)C(=O)N[C@@H](C)C(=O)N[C@@H](Cc1ccccc1)C(=O)NCC(=O)O [HLRRINKLLTRIGLYRHAFG]
MIC (Escherichia coli): > 52.6 µM | MIC [27]: ≥ 52.6 µM | MIC [7]: 26.3 µM (≈ 64 µg/mL) | MIC [8]: 13.1 µM (≈ 32 µg/mL) | MIC [11]: 3.29 µM (≈ 8 µg/mL) | MIC [12]: 26.3 µM (≈ 64 µg/mL) | MIC [13]: ≥ 52.6 µM | MIC (Campylobacter jejuni): ≥ 52.6 µM | MIC [14]: 13.1 µM (≈ 32 µg/mL) | MIC [15]: 52.6 µM (≈ 128 µg/mL) | MIC [16]: ≥ 52.6 µM | MIC (Escherichia coli K-12): 26.3 µM (≈ 64 µg/mL) | MIC (Pseudomonas aeruginosa): 105 µM (≈ 256 µg/mL) | MIC [28]: ≥ 105 µM | MIC [19]: ≥ 52.6 µM | MIC [20]: 13.1 µM (≈ 32 µg/mL) | MIC [21]: > 52.6 µM | MIC [29]: 13.1 µM (≈ 32 µg/mL) | MIC [22]: 13.1 µM (≈ 32 µg/mL) | MIC [23]: > 52.6 µM | MIC (Acinetobacter baumannii): 6.57 µM (≈ 16 µg/mL) | MIC [30]: 13.1 µM (≈ 32 µg/mL) | MIC [31]: 26.3 µM (≈ 64 µg/mL) | MIC [24]: 13.1 µM (≈ 32 µg/mL) | MIC [25]: 26.3 µM (≈ 64 µg/mL) | MIC [26]: 13.1 µM (≈ 32 µg/mL)

CC[C@H](C)[C@H](NC(=O)[C@@H]1CCCN1C(=O)[C@H](CC(C)C)NC(=O)[C@@H](N)Cc1ccccc1)C(=O)N[C@H](C(=O)N[C@@H](C)C(=O)N[C@@H](CCCCN)C(=O)N[C@@H](CC(C)C)C(=O)N[C@@H](CC(C)C)C(=O)N[C@@H](CO)C(=O)NCC(=O)N[C@@H](CC(C)C)C(=O)N[C@@H](CC(C)C)C(N)=O)C(C)C [FLPIVAKLLSGLL]
MIC [7]: 4 µM (≈ 5.53 µg/mL) | MIC [32]: ≥ 32 µM | MIC [33]: 8 µM (≈ 11.1 µg/mL) | MIC [34]: 16 µM (≈ 22.1 µg/mL) | MIC [35]: 8 µM (≈ 11.1 µg/mL) | MIC [36]: 16 µM (≈ 22.1 µg/mL) | MIC [37]: 4 µM (≈ 5.53 µg/mL) | MIC [38]: ≥ 32 µM | MIC [23]: 128 µM (≈ 177 µg/mL) | MIC [39]: 2 µM (≈ 2.77 µg/mL) | MIC [40]: 4 µM (≈ 5.53 µg/mL) | MIC [25]: > 128 µM
